According to patent US5498632A, “Esters of acyl carnitines with long-chain aliphatic alcohols and pharmaceutical compositions containing same having antibacterial activity” (Sigma-Tau Industrie Farmaceutiche Riunite S.p.A., priority 1992, dated 1996):
Read-outs that look alike come from different tables or passages of the source.

Assays:
Format in all cases: cell-based
[1] = system: Staphylococcus aureus (303); test: MIC in broth, Gram+ strains; conditions: S. aureus (303), Mueller-Hinton broth, 37° C., 18 hours, read-out: Minimal Inhibitory Concentration (MIC)
Method: (§1) Evaluation of the Minimal Inhibitory Concentration (MIC) in broth of 15 new substances for Gram+ bacterial strains.
(§2) The following strains were used: Staphylococcus aureus (4); Streptococcus faecalis (8); Bacillus pumilus (1); Bacillus subtilis (1).
(§3) MICs were determined by a standard microdilution test, using serial two-fold dilutions of the substances in Mueller-Hinton broth.
(§4) The inoculum was prepared from an overnight culture in Mueller-Hinton broth matching the 0.5 Mc Farland (turbidity) standard (BRAY W. E., Clinical Laboratory Methods, 5th Ed. C. V. MOSBY, St. Louis, Mo. 1957), and was adjusted to a final concentration of 5.0×10^4 colony-forming units/ml.
(§5) Equal volumes (0.1 ml) of both bacterial suspensions and substance solutions were distributed in microtiter plates (Falcon, 96 wells, round bottom), and then placed in a humidified incubator (37° C.) for 18 hours.
(§6) The results, in terms of MIC values, resistant strain number and mean MIC values versus susceptible strains, are illustrated in Tables 1-6.

[2] = system: Staphylococcus aureus (LC1); test: MIC in broth, Gram+ strains; conditions: S. aureus (LC1), Mueller-Hinton broth, 37° C., 18 hours, read-out: Minimal Inhibitory Concentration (MIC)
Method: as §1, §2, §3, §4, §5, §6

[3] = system: Streptococcus faecalis (518); test: MIC in broth, Gram+ strains; conditions: Enterococcus faecalis; S. faecalis (518), Mueller-Hinton broth, 37° C., 18 hours; read-out: Minimal Inhibitory Concentration (MIC)
Method: as §1, §2, §3, §4, §5, §6

[4] = system: Streptococcus faecalis (519); test: MIC in broth, Gram+ strains; conditions: Enterococcus faecalis; S. faecalis (519), Mueller-Hinton broth, 37° C., 18 hours; read-out: Minimal Inhibitory Concentration (MIC)
Method: as §1, §2, §3, §4, §5, §6

Gram+ bacterial strains = test: Mean MIC in broth and resistant strain number, Gram+ strains; conditions: 18 h, versus susceptible strains
Method: as §1, §2, §3, §4, §5, §6

Escherichia coli (76 F) = test: MIC in broth, Gram- strains; conditions: 18 h, E. coli (76 F), read-out: Minimal Inhibitory Concentration (MIC)
Method: as §3, §4, §5
(§7) Evaluation of the Minimal Inhibitory Concentration (MIC) in broth of 16 new substances for Gram- bacterial strains.
(§8) The following strains were used: Enterobacter (1), Escherichia (3), Klebsiella (3), Proteus (3); Pseudomonas (2); Salmonella (2), Serratia (1).

Klebsiella oxytoca (552) = test: MIC in broth, Gram- strains; conditions: 18 h, read-out: Minimal Inhibitory Concentration (MIC)
Method: as §3, §4, §5, §7, §8

[5] = system: Pseudomonas aeruginosa (3 E); test: MIC in broth, Gram- strains; conditions: 18 h, read-out: Minimal Inhibitory Concentration (MIC)
Method: as §3, §4, §5, §7, §8

[6] = system: Salmonella typhimurium (D.S.); test: MIC in broth, Gram- strains; conditions: Salmonella enterica, 18 h, read-out: Minimal Inhibitory Concentration (MIC)
Method: as §3, §4, §5, §7, §8

Gram- bacterial strains = test: Mean MIC in broth and resistant strain number, Gram- strains; conditions: 18 h, read-out: Mean MIC values
Method: as §3, §4, §5, §7, §8

[7] = system: Staphylococcus aureus (306 MR); test: MIC in broth, Gram+ strains; conditions: S. aureus (306 MR), Mueller-Hinton broth, 37° C., 18 hours, read-out: Minimal Inhibitory Concentration (MIC)
Method: as §1, §2, §3, §4, §5, §6

[8] = system: Staphylococcus aureus (ATCC 14154); test: MIC in broth, Gram+ strains; conditions: ATCC14154, S. aureus (ATCC 14154), Mueller-Hinton broth, 37° C., 18 hours, read-out: Minimal Inhibitory Concentration (MIC)
Method: as §1, §2, §3, §4, §5, §6

[9] = system: Bacillus pumilus (CN 607); test: MIC in broth, Gram+ strains; conditions: B. pumilus (CN 607), Mueller-Hinton broth, 37° C., 18 hours, read-out: Minimal Inhibitory Concentration (MIC)
Method: as §1, §2, §3, §4, §5, §6

[10] = system: Bacillus subtilis (ATCC 6051); test: MIC in broth, Gram+ strains; conditions: ATCC6051, B. subtilis (ATCC 6051), Mueller-Hinton broth, 37° C., 18 hours, read-out: Minimal Inhibitory Concentration (MIC)
Method: as §1, §2, §3, §4, §5, §6

[11] = system: Streptococcus faecalis (501); test: MIC in broth, Gram+ strains; conditions: Enterococcus faecalis; S. faecalis (501), Mueller-Hinton broth, 37° C., 18 hours; read-out: Minimal Inhibitory Concentration (MIC)
Method: as §1, §2, §3, §4, §5, §6

[12] = system: Streptococcus faecalis (505); test: MIC in broth, Gram+ strains; conditions: Enterococcus faecalis; S. faecalis (505), Mueller-Hinton broth, 37° C., 18 hours; read-out: Minimal Inhibitory Concentration (MIC)
Method: as §1, §2, §3, §4, §5, §6

[13] = system: Streptococcus faecalis (509); test: MIC in broth, Gram+ strains; conditions: Enterococcus faecalis; S. faecalis (509), Mueller-Hinton broth, 37° C., 18 hours; read-out: Minimal Inhibitory Concentration (MIC)
Method: as §1, §2, §3, §4, §5, §6

[14] = system: Streptococcus faecalis (516); test: MIC in broth, Gram+ strains; conditions: Enterococcus faecalis; S. faecalis (516), Mueller-Hinton broth, 37° C., 18 hours; read-out: Minimal Inhibitory Concentration (MIC)
Method: as §1, §2, §3, §4, §5, §6

[15] = system: Streptococcus faecalis (R 2); test: MIC in broth, Gram+ strains; conditions: Enterococcus faecalis; S. faecalis (R 2), Mueller-Hinton broth, 37° C., 18 hours; read-out: Minimal Inhibitory Concentration (MIC)
Method: as §1, §2, §3, §4, §5, §6

[16] = system: Streptococcus faecalis (UM); test: MIC in broth, Gram+ strains; conditions: Enterococcus faecalis; S. faecalis (UM), Mueller-Hinton broth, 37° C., 18 hours; read-out: Minimal Inhibitory Concentration (MIC)
Method: as §1, §2, §3, §4, §5, §6

[17] = system: Enterobacter aerogenes (UM); test: MIC in broth, Gram- strains; conditions: Klebsiella aerogenes, 18 h, read-out: Minimal Inhibitory Concentration (MIC)
Method: as §3, §4, §5, §7, §8

Escherichia coli (92 F) = test: MIC in broth, Gram- strains; conditions: 18 h, E. coli (92 F), read-out: Minimal Inhibitory Concentration (MIC)
Method: as §3, §4, §5, §7, §8

Proteus vulgaris (UM) = test: MIC in broth, Gram- strains; conditions: 18 h, read-out: Minimal Inhibitory Concentration (MIC)
Method: as §3, §4, §5, §7, §8

[18] = Gram- strains, versus susceptible strains

SMILES | MIC [1] | MIC [2] | MIC [3] | MIC [4] | MIC (Gram+ bacterial strains) | MIC (Escherichia coli (76 F)) | MIC (Klebsiella oxytoca (552)) | MIC [5] | MIC [6] | MIC (Gram- bacterial strains; [18]) | MIC [7] | MIC [8] | MIC (Gram- bacterial strains) | MIC [9] | MIC [10] | MIC [11] | MIC [13] | MIC [17] | MIC (Escherichia coli (92 F)) | MIC (Proteus vulgaris (UM)) | further results
CCCCCCCCCCCOC(=O)CC(C[N+](C)(C)C)OC(=O)CCCCCCCCCC (centres unmarked) [ST 982] | > 100 µg/mL | 3.12 µg/mL | 1.56 µg/mL | 3.12 µg/mL | 2.6 µg/mL | > 100 µg/mL | > 100 µg/mL | > 100 µg/mL | > 100 µg/mL | > 100 µg/mL |  |  |  |  |  |  |  |  |  |  | 
CCCCCCCCCCCCCCCC(=O)OC(CC(=O)OCCCCCCCCCCC)C[N+](C)(C)C (centres unmarked) [ST 983] | > 100 µg/mL | > 100 µg/mL | > 100 µg/mL | > 100 µg/mL | > 100 µg/mL | > 100 µg/mL | > 100 µg/mL | > 100 µg/mL | > 100 µg/mL | > 100 µg/mL |  |  |  |  |  |  |  |  |  |  | 
CCCCCCCCCCCOC(=O)CC(C[N+](C)(C)C)OC(=O)CCCCCCC (centres unmarked) [ST 1000] |  | 1.56 µg/mL | 3.12 µg/mL | 3.12 µg/mL | 2.49 µg/mL | > 100 µg/mL | > 100 µg/mL | > 100 µg/mL | > 100 µg/mL |  | 3.12 µg/mL | 1.56 µg/mL | > 100 µg/mL |  |  |  |  |  |  |  | 
CCCCCCCCCCCCCCCCOC(=O)CC(C[N+](C)(C)C)OC(=O)CC(C)C (centres unmarked) [ST 1001] | 6.25 µg/mL | 12.5 µg/mL | 3.12 µg/mL | 3.12 µg/mL | 5.35 µg/mL |  |  | > 100 µg/mL | > 100 µg/mL |  | 6.25 µg/mL | 6.25 µg/mL | > 100 µg/mL | 6.25 µg/mL | 12.5 µg/mL | 3.12 µg/mL | 3.12 µg/mL | > 100 µg/mL | > 100 µg/mL | > 100 µg/mL | MIC [12]: 3.12 µg/mL; MIC [14]: 3.12 µg/mL; MIC [15]: 3.12 µg/mL; MIC [16]: 3.12 µg/mL
CCCCCCCCCCCCCOC(=O)CC(C[N+](C)(C)C)OC(=O)CC(C)C (centres unmarked) [ST 1033] | 3.12 µg/mL | 1.56 µg/mL | 1.56 µg/mL | 1.56 µg/mL | 2.11 µg/mL |  |  | > 100 µg/mL | > 100 µg/mL | 100 µg/mL | 3.12 µg/mL | 3.12 µg/mL |  | 1.56 µg/mL | 3.12 µg/mL | 3.12 µg/mL | 1.56 µg/mL | 100 µg/mL | > 100 µg/mL | > 100 µg/mL | MIC [12]: 1.56 µg/mL; MIC [14]: 1.56 µg/mL; MIC [15]: 1.56 µg/mL; MIC [16]: 1.56 µg/mL
CCCCCCCCCCCCOC(=O)CC(C[N+](C)(C)C)OC(=O)CC(C)C (centres unmarked) [ST 1037] | 3.12 µg/mL | 3.12 µg/mL | 1.56 µg/mL | 1.56 µg/mL | 2.34 µg/mL |  |  | > 100 µg/mL | > 100 µg/mL | 62.5 µg/mL | 3.12 µg/mL | 3.12 µg/mL |  | 1.56 µg/mL | 3.12 µg/mL | 3.12 µg/mL | 1.56 µg/mL | 25 µg/mL | 100 µg/mL | > 100 µg/mL | MIC [12]: 3.12 µg/mL; MIC [14]: 1.56 µg/mL; MIC [15]: 1.56 µg/mL; MIC [16]: 1.56 µg/mL
CCCCCCCCCCCCCOC(=O)CC(C[N+](C)(C)C)OC(=O)CCCCCC (centres unmarked) [ST 1050] | 6.25 µg/mL |  |  |  | 4.06 µg/mL |  | > 100 µg/mL | > 100 µg/mL |  |  | 6.25 µg/mL |  | > 100 µg/mL | 1.56 µg/mL |  | 3.12 µg/mL | 3.12 µg/mL | > 100 µg/mL | > 100 µg/mL | > 100 µg/mL | 
CCCCCCCCCCCCCOC(=O)CC(C[N+](C)(C)C)OC(=O)C(C)CCCC (centres unmarked) [ST 1051] | 6.25 µg/mL |  |  |  | 6.56 µg/mL |  | > 100 µg/mL | > 100 µg/mL |  |  | 12.5 µg/mL |  | > 100 µg/mL | 1.56 µg/mL |  | 6.25 µg/mL | 6.25 µg/mL | > 100 µg/mL | > 100 µg/mL | > 100 µg/mL | 
CCCCCCCCCCCCCOC(=O)CC(C[N+](C)(C)C)OC(=O)CCCCC (centres unmarked) [ST 1052] | 3.12 µg/mL |  |  |  | 2.49 µg/mL |  | > 100 µg/mL | > 100 µg/mL |  |  | 3.12 µg/mL |  | > 100 µg/mL | 1.56 µg/mL | 3.12 µg/mL | 3.12 µg/mL | 1.56 µg/mL | > 100 µg/mL | > 100 µg/mL | > 100 µg/mL | 
CCCCCCCCCCCCCOC(=O)CC(C[N+](C)(C)C)OC(=O)CCCCCCC (centres unmarked) [ST 1053] | 6.25 µg/mL |  |  |  | 4.37 µg/mL |  | > 100 µg/mL | > 100 µg/mL |  |  | 6.25 µg/mL |  | > 100 µg/mL | 1.56 µg/mL |  | 6.25 µg/mL | 1.56 µg/mL | > 100 µg/mL | > 100 µg/mL | > 100 µg/mL | 
